In patent US11371055B2, “Herbicide resistance genes” (CORTEVA AGRISCIENCE LLC, priority 2005, dated 2022):

What was measured:
[1] = test system: AAD-12 (v1) transformed T1 corn plants; test: Brace root injury of T1 corn after 2,4-D DMA; format: in vivo, Zea mays; settings: 2240 g ae/ha 2,4-D DMA, V3-V4 stage, 14DAT
From the text: T1 AAD-12 (v1) seed were planted into 3-inch pots containing Metro Mix media and at 2 leaf stage were sprayed with 70 g ae/ha imazethapyr to eliminate nulls. Surviving plants were transplanted to 1-gallon pots containing Metro Mix media and placed in the same growth conditions as before. At V3-V4 stage the plants were sprayed in the track sprayer set to 187 L/ha at either 560 or 2240 g ac/ha 2,4-D DMA. Plants were graded at 3 and 14 DAT and compared to 5XH751×Hi II control plants. A grading scale of 0-10 (no injury to extreme auxin injury) was developed to distinguish brace root injury. Brace Root grades were taken on 14DAT to show 2,4-D tolerance. 2,4-D causes brace root malformation, and is a consistent indicator of auxinic herbicide injury in corn. […] Event “pDAB4101(0)001.001” was apparently unstable; however, the other two events were robustly tolerant to 2,4-D and 2,4-D+imazethapyr or 2,-4D+glyphosate (see Table 16).

[2] = test system: R-dichlorprop habituated BY2 tobacco cells; test: 2,4-D dose response of tobacco cell suspension (BY2); format: cell-based; settings: LSBY2C medium
Procedure: A dose response study was conducted with both the R-dichlorprop habituated PHL cells and the R-dichlorprop habituated BY2 cells where R-dichlorprop was substituted directly for 2,4-D in culture media. Though the focus was on PHL, a dose response was also done with BY2 in case of possible future studies, as well as to help predict the dose response for PHL. For the dichlorprop habituated PHL dose response, the levels of 2,4-D used (on LSBY2C medium with R-dichlorprop) were 0 (the control), 1, 2, 3, 5, 8, 10, 12, 15, 18, 20, 40, 60, 80, […] mg/L 2,4-D. There were four replications per concentration. For the R-dichlorprop habituated BY2 dose response, the levels of 2,4-D used (on LSBY2C medium) were 0 (the control), 1, 2, 3, 5, 8, 10, 20, 30, 40, mg/L 2,4-D.

T1 AAD-1 (v3) tobacco = test: Elevated 2,4-D DMA rates in greenhouse tobacco, AAD-1; format: in vivo, Nicotiana tabacum
From the text: T1 AAD-12 (v1) plants from an event segregating 3R:1S when selected with 560 g ai/ha Liberty using the same protocol as previously described. T1 AAD-1 (v3) seed was also planted for transformed tobacco controls (see PCT/US2005/014737). Untransformed KY160 was served as the sensitive control. Plants were sprayed using a track sprayer set to 187 L/ha at 140, 560, 2240, 8960, and 35840 g ae/ha 2,4-D DMA and rated 3 and 14 DAT.

[3] = test system: AAD-12 (v1) transformed T0 tobacco events (pDAS1580); test: Postemergence herbicide tolerance in T0 tobacco; format: in vivo, Nicotiana tabacum; settings: 560 g ae/ha fluroxypyr
From the text: T0 plants from each of the 19 events were challenged with a wide range of 2,4-D, triclopyr, or fluroxypyr sprayed on plants that were 3-4 inches tall. Spray applications were made as previously described using a track sprayer at a spray volume of 187 L/ha. 2,4-D dimethylamine salt (Riverside Corp) was applied at 0, 140, 560, or 2240 g ae/ha to representative clones from each event mixed in deionized water. Fluroxypyr was likewise applied at 35, 140, or 560 g ac/ha. Triclopyr was applied at 70, 280, or 1120 g ae/ha. Each treatment was replicated 1-3 times. Injury ratings were recorded 3 and 14 DAT. Every event tested was more tolerant to 2,4-D than the untransformed control line KY160. In several events, some initial auxinic herbicide-related epinasty occurred at doses of 560 g ae/ha 2,4-D or less. Some events were uninjured at 2,4-D applied at 2240 g ac/ha (equivalent to 4× field rate). On the whole, AAD-12 (v1) events were more sensitive to fluroxypyr, followed by triclopyr, and least affected by 2,4-D. The quality of the events with respect to magnitude of resistance was discerned using T0 plant responses to 560 g ae/ha fluroxypyr. Events were categorized into “low” (>40% injury 14 DAT), “medium” (20-40% injury), “high” (<20% injury). Some events were inconsistent in response among replicates and were deemed “variable.”

CNC.O=C(O)COc1ccc(Cl)cc1Cl [2,4-D DMA]
Average Brace Root Injury (0-10 Scale) ([1]; event AAD-12 (v1) pDAB4101(0)005.001): 0 | Average Brace Root Injury (0-10 Scale) ([1]; event AAD-12 (v1) pDAB41011(0)003.003): 1 | Average Brace Root Injury (0-10 Scale) ([1]; event AAD-12 (v1)pDAB4101(0)001.001): 8

O=C(O)COc1ccc(Cl)cc1Cl [2,4-D, 2,4-dichlorophenoxyacetic acid]
lethal concentration of 2,4-D [2]: 10 mg/L | sub lethal concentration of 2,4-D [2]: 8 mg/L | Average % injury 14 DAT (T1 AAD-1 (v3) tobacco; 2240 g ae/ha 2,4-D): 4% | Average % injury 14 DAT (T1 AAD-1 (v3) tobacco; 8960 g ae/ha 2,4-D): 9% | Average % injury 14 DAT (T1 AAD-1 (v3) tobacco; 35840 g ae/ha 2,4-D): 32%

Nc1c(Cl)c(F)nc(OCC(=O)O)c1Cl [Fluroxypyr]
Relative Herbicide Tolerance ([3]; T0 event 1580[1]-004): High | Relative Herbicide Tolerance ([3]; T0 event 1580[1]-005): Variable | Relative Herbicide Tolerance ([3]; T0 event 1580[1]-008): Variable | Relative Herbicide Tolerance ([3]; T0 event 1580[1]-011): High | Relative Herbicide Tolerance ([3]; T0 event 1580[1]-015): High | Relative Herbicide Tolerance ([3]; T0 event 1580[1]-016): High | Relative Herbicide Tolerance ([3]; T0 event 1580[1]-017): High | Relative Herbicide Tolerance ([3]; T0 event 1580[1]-018): Variable | Relative Herbicide Tolerance ([3]; T0 event 1580[1]-019): Variable | Relative Herbicide Tolerance ([3]; T0 event 1580[1]-022): Variable | Relative Herbicide Tolerance ([3]; T0 event 1580[1]-023): Variable | Relative Herbicide Tolerance ([3]; T0 event 1580[1]-024): Variable | Relative Herbicide Tolerance ([3]; T0 event 1580[1]-026): Variable | Relative Herbicide Tolerance ([3]; T0 event 1580[1]-027): Low | Relative Herbicide Tolerance ([3]; T0 event 1580[1]-029): Variable | Relative Herbicide Tolerance ([3]; T0 event 1580[1]-030): High | Relative Herbicide Tolerance ([3]; T0 event 1580[1]-031): High | Relative Herbicide Tolerance ([3]; T0 event 1580[1]-032): High
